Measured values taken from PubChem BioAssay AID1259411 (Chemical Carcinogenesis Research Information System (CCRIS), 2018).
Calls of active or inactive are those of the source. How the calls were made is not given here.

System: rodent carcinogenicity bioassays, tumor incidence
Assay: CCRIS carcinogenicity studies
How it was run: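 NCI-built, expert-reviewed records of carcinogenicity and related test outcomes (mutagenicity, tumor promotion/inhibition) compiled from published and report sources, historical span 1985-2011, not updated.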

Measured: carcinogen call

CCCCN(N=O)C(N)=O
active: Species: MOUSE (NEWBORN), Strain/Sex: CD-1/MALE,FEMALE, Route: SUBCUTANEOUS, Dose: 333 MG/KG IN 1% GEL SOLN WITHIN 24 HR OF BIRTH, Tumor Site: Type of Lesion: LUNG: ADENOMA, ADENOCARCINOMA, LIVER: ADENOMA active; positive | Species: RAT, Strain/Sex: F344/FEMALE, Route: GAVAGE, Dose: 0, 15 MG/ML (TOTAL DOSE 0; 1.7 MMOL) IN 2 ML ETHYL ACETATE AND CORN OIL (1:2) 2/WK FOR 40 WK (STUDY DURATION: LIFETIME), Dose: 0, 15 MG/ML (TOTAL DOSE 0; 1.7 MMOL) IN 2 ML ETHYL ACETATE AND CORN OIL (1:2) 2/WK FOR 40 WK (STUDY DURATION: LIFETIME), Tumor Site: Type of Lesion: FORESTOMACH: SQUAMOUS CELL CARCINOMA, LUNG: TUMOR, MAMMARY GLAND: TUMOR, UTERUS: TUMOR, Tumor Site: Type of Lesion: FORESTOMACH: SQUAMOUS CELL CARCINOMA, LUNG: TUMOR, MAMMARY GLAND: TUMOR, UTERUS: TUMOR active; positive | Species: RAT, Strain/Sex: F344/FEMALE, Route: GAVAGE, Dose: 0, 15 MG/ML IN 0.2 ML ETHYL ACETATE AND CORN OIL 2/WK FOR 40 WK (STUDY DURATION: LIFESPAN), Tumor Site: Type of Lesion: FORESTOMACH: TUMOR, LUNG: TUMOR, MAMMARY GLAND: TUMOR, UTERUS: TUMOR, Tumor Site: Type of Lesion: FORESTOMACH: TUMOR, LUNG: TUMOR, MAMMARY GLAND: TUMOR, UTERUS: TUMOR active; positive | Species: RAT, Strain/Sex: F344/MALE, Route: GAVAGE, Dose: 0, 15 MG/ML (TOTAL DOSE 0; 1.7 MMOL) IN 2 ML ETHYL ACETATE AND CORN OIL (1:2) 2/WK FOR 40 WK (STUDY DURATION: LIFETIME), Dose: 0, 15 MG/ML (TOTAL DOSE 0; 1.7 MMOL) IN 2 ML ETHYL ACETATE AND CORN OIL (1:2) 2/WK FOR 40 WK (STUDY DURATION: LIFETIME), Tumor Site: Type of Lesion: FORESTOMACH: SQUAMOUS CELL CARCINOMA, LUNG: TUMOR active; positive | Species: RAT, Strain/Sex: F344/MALE, Route: GAVAGE, Dose: 0, 15 MG/ML IN 0.2 ML ETHYL ACETATE AND CORN OIL 2/WK FOR 40 WK (STUDY DURATION: LIFESPAN), Tumor Site: Type of Lesion: FORESTOMACH: TUMOR, LUNG: TUMOR active; positive

NCCNc1cccc2ccccc12
inactive: Species: MOUSE, Strain/Sex: B6C3F1/FEMALE, Route: ORAL, Dose: 0, 0.2, 0.3% OF DIET, TWA FOR HIGH DOSE, Dose: 0, 0.2, 0.3% OF DIET, TWA FOR HIGH DOSE inactive; negative | Species: MOUSE, Strain/Sex: B6C3F1/MALE, Route: ORAL, Dose: 0, 0.05, 0.1% OF DIET, Dose: 0, 0.05, 0.1% OF DIET inactive; negative | Species: RAT, Strain/Sex: F344/FEMALE, Route: ORAL, Dose: 0, 0.05, 0.1% OF DIET, Dose: 0, 0.05, 0.1% OF DIET inactive; negative | Species: RAT, Strain/Sex: F344/MALE, Route: ORAL, Dose: 0, 0.05, 0.1% OF DIET, Dose: 0, 0.05, 0.1% OF DIET inactive; negative

O=P(OCC(Br)CBr)(OCC(Br)CBr)OCC(Br)CBr (stereo not given)
active: Species: MOUSE, Strain/Sex: B6C3F1/FEMALE, Route: ORAL, Dose: 0, 500, 1000 PPM IN DIET, Dose: 0, 500, 1000 PPM IN DIET, Tumor Site: Type of Lesion: STOMACH: SQUAMOUS CELL PAPILLOMA OR CARCINOMA, LUNG: ALVEOLAR/BRONCHIOLAR ADENOMA OR CARCINOMA, LIVER: HEPATOCELLULAR AD, Tumor Site: Type of Lesion: STOMACH: SQUAMOUS CELL PAPILLOMA OR CARCINOMA, LUNG: ALVEOLAR/BRONCHIOLAR ADENOMA OR CARCINOMA, LIVER: HEPATOCELLULAR AD active; positive | Species: MOUSE, Strain/Sex: B6C3F1/MALE, Route: ORAL, Dose: 0, 500, 1000 PPM IN DIET, Dose: 0, 500, 1000 PPM IN DIET, Tumor Site: Type of Lesion: STOMACH: SQUAMOUS CELL PAPILLOMA OR CARCINOMA, LUNG: ALVEOLAR/BRONCHIOLAR ADENOMA OR CARCINOMA active; positive | Species: RAT, Strain/Sex: F344/FEMALE, Route: ORAL, Dose: 0, 50, 100 PPM IN DIET, Dose: 0, 50, 100 PPM IN DIET, Tumor Site: Type of Lesion: KIDNEY: TUBULAR CELL ADENOMA active; positive | Species: RAT, Strain/Sex: F344/MALE, Route: ORAL, Dose: 0, 50, 100 PPM IN DIET, Dose: 0, 50, 100 PPM IN DIET, Tumor Site: Type of Lesion: KIDNEY: TUBULAR CELL ADENOMA OR ADENOCARCINOMA active; positive

COP(=S)(OC)Oc1ccc([N+](=O)[O-])cc1
inactive: Species: MOUSE, Strain/Sex: B6C3F1/FEMALE, Route: ORAL, Dose: 0, 62.5, 125 PPM IN DIET, Dose: 0, 62.5, 125 PPM IN DIET inactive; negative | Species: MOUSE, Strain/Sex: B6C3F1/MALE, Route: ORAL, Dose: 0, 35, 77 PPM IN DIET, TWA, Dose: 0, 35, 77 PPM IN DIET, TWA inactive; negative | Species: RAT, Strain/Sex: F344/FEMALE, Route: ORAL, Dose: 0, 20, 40 PPM IN DIET, Dose: 0, 20, 40 PPM IN DIET inactive; negative | Species: RAT, Strain/Sex: F344/MALE, Route: ORAL, Dose: 0, 20, 40 PPM IN DIET, Dose: 0, 20, 40 PPM IN DIET inactive; negative

C=CF
active: Species: MOUSE, Strain/Sex: SWISS/FEMALE, Route: INHALATION, Dose: 0, 25, 250, 2500 PPM 6 HR/D 5 D/WK FOR 18 MO (STUDY DURATION: 18 MO), Dose: 0, 25, 250, 2500 PPM 6 HR/D 5 D/WK FOR 18 MO (STUDY DURATION: 18 MO), Tumor Site: Type of Lesion: LUNG: ADENOMA, LIVER: HEMANGIOSARCOMA, MAMMARY GLAND: TUMOR, Tumor Site: Type of Lesion: LUNG: ADENOMA, LIVER: HEMANGIOSARCOMA, MAMMARY GLAND: TUMOR active; positive | Species: MOUSE, Strain/Sex: SWISS/MALE, Route: INHALATION, Dose: 0, 25, 250, 2500 PPM 6 HR/D 5 D/WK FOR 18 MO (STUDY DURATION: 18 MO), Dose: 0, 25, 250, 2500 PPM 6 HR/D 5 D/WK FOR 18 MO (STUDY DURATION: 18 MO), Tumor Site: Type of Lesion: LUNG: ADENOMA, LIVER: HEMANGIOSARCOMA active; positive | Species: RAT, Strain/Sex: SPRAGUE-DAWLEY/FEMALE, Route: INHALATION, Dose: 0, 25, 250, 2500 PPM 6 HR/D 5 D/WK FOR 2 YR (STUDY DURATION: 2 YR), Dose: 0, 25, 250, 2500 PPM 6 HR/D 5 D/WK FOR 2 YR (STUDY DURATION: 2 YR), Tumor Site: Type of Lesion: LIVER: HEMANGIOSARCOMA, ADENOMA OR CARCINOMA, ZYMBAL'S GLAND: TUMOR active; positive | Species: RAT, Strain/Sex: SPRAGUE-DAWLEY/MALE, Route: INHALATION, Dose: 0, 25, 250, 2500 PPM 6 HR/D 5 D/WK FOR 2 YR (STUDY DURATION: 2 YR), Dose: 0, 25, 250, 2500 PPM 6 HR/D 5 D/WK FOR 2 YR (STUDY DURATION: 2 YR), Tumor Site: Type of Lesion: LIVER: HEMANGIOSARCOMA, ZYMBAL'S GLAND: TUMOR active; positive

O=[N+]([O-])c1ccc2c3c(cccc13)CC2
active: Species: MOUSE, Strain/Sex: B6C3F1/FEMALE, Route: ORAL, Dose: 0, 0.05, 0.12% TWA, IN DIET FOR 78 WK (STUDY DURATION: 96 WK), Dose: 0, 0.05, 0.12% TWA, IN DIET FOR 78 WK (STUDY DURATION: 96 WK), Tumor Site: Type of Lesion: LIVER: HEPATOCELLULAR CARCINOMA, OVARIES: GRANULOSA CELL TUMOR, LUTEOMA OR TUBULAR CELL ADENOMA active; positive | Species: RAT, Strain/Sex: F344/FEMALE, Route: ORAL, Dose: 0, 0.12, 0.24% IN DIET FOR 78 WK (STUDY DURATION: 87-100 WK), Dose: 0, 0.12, 0.24% IN DIET FOR 78 WK (STUDY DURATION: 87-100 WK), Tumor Site: Type of Lesion: LUNG: ALVEOLAR/BRONCHIOLAR ADENOMA OR ALVEOLAR/BRONCHIOLAR CARCINOMA, MAMMARY GLAND: ADENOCARCINOMA OR PAPILLARY CYSTADE active; positive | Species: RAT, Strain/Sex: F344/MALE, Route: ORAL, Dose: 0, 0.12, 0.24% IN DIET FOR 70-78 WK (STUDY DURATION: 70-100 WK), Dose: 0, 0.12, 0.24% IN DIET FOR 70-78 WK (STUDY DURATION: 70-100 WK), Tumor Site: Type of Lesion: LUNG: ALVEOLAR/BRONCHIOLAR ADENOMA OR ALVEOLAR/BRONCHIOLAR CARCINOMA, EAR (EAR CANAL OR SKIN OF EAR): SQUAMOUS CELL CARC active; positive
inactive: Species: MOUSE, Strain/Sex: B6C3F1/MALE, Route: ORAL, Dose: 0, 0.06, 0.12% TWA, IN DIET FOR 78 WK (STUDY DURATION: 96 WK), Dose: 0, 0.06, 0.12% TWA, IN DIET FOR 78 WK (STUDY DURATION: 96 WK) inactive; negative
